Measured values taken from US20090123501A1, “INHIBITION OF THE SH2-DOMAIN CONTAINING PROTEIN TYR-PHOSPHATASE, SHP-1, TO ENHANCE VACCINES” (Baylor College of Medicine, priority 2007, published 2009).

Experiments:
total splenocytes = test: T cell subsets in total splenocytes 7 days after DC vaccination, flow cytometry; assay type: in vivo, C57BL/6 mice; conditions: by viral treatment, peptides pooled
Description: To determine the effect of SHP-1 inhibition on the initiation of T cell responses, BMDCs were cultured and CD11c^+ MACS purified as described above. […] Following peptide loading DCs were left untreated or transduced with one of 3 different adenoviral vectors: 1) Ad5-SHP-1-shRNA; 2) Ad5-scrambled-shRNA; or 3) Ad5-CMV-empty, an adenovirus carrying a CMV promoter expression vector but no insert. […] Using all combinations of peptide and virus treatment yielded 9 experimental vaccines and one no vaccine control. Vaccines (2×10^6 DCs) were injected i.p. into wt C57BL/6 mice. Seven days following vaccination mice were sacrificed and total splenocytes were analyzed by multi-color flow cytometry for the expression of several T cell subsets. CD3^+ CD8^+IFNγ^+ cells were characterized as CTL effectors, CD3^+ CD4^+IFNγ^+ cells were characterized as Th1 helper T cells, and CD4^+ FOXP3^+ cells were characterized as Treg cells. Flow cytometry data were analyzed by one-way analysis of variance (ANOVA) and Tukey-Kramer HSD multiple comparisons test for percentage of cells falling within each population following treatment. Cells were stained with anti-CD3, anti-CD8 and anti IFNγ to differentiate CD8^+ effectors and CD4^+ Th1 T cell skewing or anti-CD4 and anti-FOXP3 to determine Tregs. To determine if there was a peptide specific effects between the 3 different tumor antigens, viral treatments were pooled for each peptide exposure. Data represent the averages 6 mice per peptide treatment group and 2 mice in the no treatment control group. No significant differences were seen between peptides in the induction of Tregs or CD8^+ effector cells.
(§1) Following peptide loading DCs were left untreated or transduced with one of 3 different adenoviral vectors: 1) Ad5-SHP-1-shRNA; 2) Ad5-scrambled-shRNA; or 3) Ad5-CMV-empty, an adenovirus carrying a CMV promoter expression vector but no insert. Vaccines were injected i.p. into wt C57BL/6 mice and T cell skewing analyzed 7 days later by flow cytometry from total splenocytes. Cells were stained with anti-CD3, anti-CD8 and anti IFNγ for effector and Th1 cells or anti-CD4 and anti-FOXP3 for Tregs. For the peptide specific analysis viral treatments were pooled for each peptide exposure. Data represent the averages 6 mice per peptide treatment and two mice in the no treatment control group. The green diamonds represent the mean and 95% confidence interval for each group from the ANOVA. The black line is the mean of means for the study and red asterisk (*) indicates significant differences (p<0.05 by Tukey-Kramer HSD multiple comparisons test).
as §1, with “the SHP-1” for “the peptide”, “each viral treatment.” for “each peptide exposure.”, “and 2” for “and two”, “ANOVA. […]” for “ANOVA. The black line is the mean of means for the study and red asterisk (*) indicates significant differences (p<0.05 by Tukey-Kramer HSD multiple comparisons test).”

SHP-1 mRNA = SHP-1 mRNA knock-down by quantitative RT-PCR in RAW cells; assay type: cell-based, murine; conditions: relative to no virus treatment
Text: Two mouse SHP-1 specific small hairpin RNAs (shRNA) sequences, 272 and 1149, (referred to by their nucleotide position from the start site of the coding sequence in Genbank mRNA Accession #BC012660) were designed and cloned into the adenoviral vector pAd-BLOCK-iT-DEST RNAi (Invitrogen, Carlsbad, Calif.) which provides U6 polymerase […] promoter-driven expression of the shRNA. The exemplary shRNA sequences Ad5-shRNA#1149 (SEQ ID NO:11) and Ad5-shRNA#272 (SEQ ID NO:12) are provided as follows: […] (SEQ ID NO:11) and […] (SEQ ID NO:12), wherein sequence underlined in the shRNA is the exemplary SHP-1 specific palandromic 21-mer. Adenovirus carrying the appropriate sequence were produced and expanded in HEK-293 cells (ATCC Manassas, Va.). These viruses were then plaque purified and the ability to knock-down SHP-1 mRNA was tested in RAW cells, a murine macrophage-like cell line, by quantitative RT-PCR and are shown as a percent of the no virus treatment (FIG. 2A and FIG. 2B). Adenovirus expressing green fluorescent protein was used as a negative control for viral treatment (FIG. 2C). […] The ability of this shRNA to knock down SHP-1 protein was examined by western blot (FIG. 2D). A large scale, high titer, preparation of Ad-shRNA#1149 was produced by the Viral Vector Core Laboratory at Baylor College of Medicine and used in subsequent studies.

BMDCs = test: In vitro transwell DC migration to CCL21; assay type: cell-based, C57BL/6 mice; conditions: BMDCs transduced 48 hours, 100 ng/mL CCL21, 3 hours transwell
Description: Primary bone marrow-derived dendritic cells (BMDCs) were prepared from wild type mice in the following manner: Bone marrow cells were flushed from the femurs and tibias of C57BL/6 mice and cultured for 6 days in RPMI media supplemented with 10% FBS, 10 ng/mL IL-4 and 10 ng/mL GMCSF along with antibiotics. On day 6, dendritic cells (DCs) were either purified by magnetic bead assisted cell sorting (MACS; Miltenyi Biotec, Auburn, Calif.) prior to adenoviral transduction, or used as unpurified bulk DCs that were then transduced with adenovirus.
For DCs to initiate an immune response, they must capture antigen in the periphery and then migrate to the lymph nodes where they stimulate antigen specific T cells. To determine if SHP-1 signaling could affected the ability of DCs to migrate to draining lymph nodes, trafficking studies were performed both in vitro and in vivo. For the in vitro DC migration assays, unpurified bulk BMDCs were transduced with either Ad5-SHP1-shRNA or Ad5-scrambled-shRNA for 48 hours or left untreated. Half of the untreated cells were treated with 1 μg/mL LPS for 24 hours. Cells were collected and washed in serum-free media (SFM) and resuspended at 5×10^6 cells/mL. […] BMDCs migrating into the lower chamber were counted using a hematocytometer.

[1] = 2×10^6 DCs i.p., day 7, vs no vaccine control

## CACCGGAGCATGACACAGCAGAATACGAATATTCTGCTGTGTCATGCTCC (chemistry not given here) [Ad5-SHP-1-shRNA]
Total splenocytes; [1]
  proportion of CD4+ Th1 skewed T cells (CD3+CD4+IFNγ+): significantly higher proportion
  proportion of CD8+ effector cells (CD3+CD8+IFNγ+): significantly higher proportion
Total splenocytes; day 7, vs empty viral control
  percentage of Tregs (CD4+FOXP3+): significantly decreased the percentage of Tregs
SHP-1 mRNA
  reduction in SHP-1 mRNA: > 5 fold reduction
BMDCs
  migration index (migration to CCL21 relative to migration without CCL21): not significantly different from that of untreated cells
